Data from patent US20100221709A1, “METHODS FOR IDENTIFYING AGENTS THAT MODULATE APOPTOSIS IN CELLS THAT OVER-EXPRESS A BCL-2 FAMILY MEMBER PROTEIN” (priority 2005, published 2010).
Where two headings read alike, the source gives them in different places.

What was measured:
[1] = molecular target: T1, recombinant Bcl-2 (Bcl-2ΔC22) (Homo sapiens, UniProt P10415); test: Antimycin A3 fluorescence binding and competitive displacement assay; details: antimycin A3 2 μM, competitor 2 μM, Bcl-2 3 μM
T1 construct: poly-His (N); made in house
Method: In this assay, 0 to 5 μM antimycin A3 (Sigma Chemical Co., St. Louis, Mo.) was added to a physiological buffer (50 mM Tris-HCl pH 8.0, 0.2 M NaCl, 2 mM EDTA, 0.5% v/v glycerol) containing recombinant Bcl-2 or Bcl-xL protein under conditions that permitted antimycin A3 to bind to the BH3-binding domain of Bcl-2 or Bcl-xL, (22.5° C. on a Hitachi F-2500 fluorescence spectrofluorimeter equipped with a thermostatted cell holder). […] The excitation wavelength was 335 nm, and the maximum emission wavelength for antimycin A3 was 428 nm with a slit width of 10 nm. The samples were mixed in a quartz cuvette and checked for inner filter effect over the range of antimycin A3 for this study. […]
Recombinant human Bcl-2ΔC22 (a recombinant human […] lacking the C-terminal 22-amino acid residue membrane anchor sequence) and mouse Bcl-xLΔC20 (a murine Bcl-xL lacking the C terminal 20-amino acid residue membrane anchor sequence) fused with poly-His at the N-terminus were chromatographically purified to homogeneity. The concentrations of antimycin A3 and stock solutions of recombinant proteins were quantitated using an extinction coefficient of 7.24/mM/cm at 320 nm and by Bradford assay, respectively. […] For peptide displacement experiments, a solution of 2 μM antimycin A3 and 3 μM Bcl-2 was allowed to reach binding equilibrium at 4° C. prior to fluorescence measurements. […]

[2] = system: mitochondria from cells over-expressing Bcl-xL (TABX2S cells); test: JC-1 staining of isolated mitochondrial fractions; assay type: biochemical, murine; details: 2 μg/ml
Method: Briefly, at 15 and 30 minutes, 5×10^5 cells were washed, trypsinized and resuspended in 1 ml of growth media. Each sample was stained with 10 μg/ml of JC-1 prepared in DMSO. After 10 minutes of incubation at 37° C., cells were transferred to ice and analysis was performed using a FACScan flow cytometer (Becton Dickinson). The excitation wavelength was 488 nm whereas measurement was performed at 520 and 585 nm for green and red fluorescence, respectively. Green and red fluorescence were measured on FL1 and FL2 channels, respectively. A minimum of 10,000 cells per sample were analyzed. Comparisons were made based on the results of at least three experiments.
Isolated mitochondria were loaded with JC-1 prior to treatment, and mitochondrial labeling was determined using FACS. […] Antimycin A-treated mitochondria with high levels of Bcl-xL had lower levels of JC-1 staining than parallel samples treated with CCCP. Uncoupled mitochondria still retain a significant Donnan potential because of trapped anionic species and it is likely that antimycin-induced PT and/or swelling of mitochondria led to a further reduction of this residual potential.
As observed for the parent compound, antimycin A3, mitochondria with normal levels of Bcl-xL expression were not affected by the 2-methoxy analog.

[3] = system: TABX2S cells (over-expressing Bcl-xL); test: in vitro
Text: (§1) Briefly, a DNA fragment encoding the full-length mouse Bcl-xL cDNA was isolated from the plasmid pBS-BCL-xL (Tzung et al., Am. J. Path. 150:1985-1995 (1997), incorporated herein by reference in its entirety) by digestion with the restriction endonuclease EcoRI. This EcoRI fragment was cloned into the EcoRI site of the mammalian expression vector pSFFV (Fuhlbrigge et al., Proc. Nat. Acad. Sci. USA 85:5649-5653 (1988)) in both sense and antisense orientations, to form expression plasmids pSFFV-Bc/-xL-WT(sense) or pSFFV-Bc/-xL(antisense), respectively. The tumorigenic murine hepatocyte cell line TAMH was transfected by lipofection (Lipofectamine, Life Technologies, Rockville, Md., according to the manufacturer's recommendations) with the plasmids pSFFV-neo (the control), pSFFV-Bc/-xL-WT(sense) or pSFFV-Bc/-xL(antisense). Characterization of and culture conditions for the cell lines have been previously published (Wu et al., Proc. Nat. Acad. Sci. USA 91:674-78 (1994); Wu et al., Cancer Res. 54:5964-5973 (1994)). Transfectants were selected for the acquisition of neomycin resistance by growing cells in the presence of 750 μg/ml of G418. Bulk transfectants were cloned by limiting dilution and individual clones were screened by immunoblot analysis to determine the level of Bcl-xL, protein expression as described below.
(§2) Selected transfectants were then tested for whole cell sensitivity to several apoptotic agents. Transfected cells were cultured to reach approximately 80% confluency prior to plating an equal number of cells from selected clones on 12-well tissue culture plates. The transplanted cells were treated with the following apoptotic agents: 5 μM doxorubicin for 48 hours; 5 μM cisplatin for 48 hours; or with 200 U/ml tumor necrosis factor (TNF) plus 1 μg/ml actinomycin D for 18 hours. Cell viability was determined by trypan blue dye exclusion. The percentage of viable cells was calculated by the number of viable cells (treated with a particular apoptogenic agent) divided by the number in the control group (untreated).
(§3) TABX2S cells and TABX1A cells were also examined for the effects of various mitochondrial inhibitors. […] Azide was diluted from an aqueous stock solution.

Cellular O2 consumption = assay type: cell-based; details: compared to antimycin A3
Bcl-xL(ΔC) WT = molecular target: T2, Bcl-xL(ΔC) WT (Homo sapiens, UniProt Q07817); test: Pore assay, calcein release from large unilamellar vesicles; assay type: biochemical
T2 construct: inferred from pET22b(+) NdeI/XhoI cloning and nickel-NTA purification) (C); made in house; host or cells: Escherichia coli BL21(DE3) carrying pUB520
Method: Large unilamellar vesicles composed of 60% dioleoylphophatidylcholine and 40% dioleoylphosphatidylglycerol were prepared by the extrusion method of Mayer et al., supra. Lipid stocks, in chloroform, were mixed and dried under a stream of nitrogen gas. The lipid was resuspended by vortexing for 30 min in a solution of 40 mM calcein (Molecular Probes), 25 mM KCl, and 10 mM KOAc, pH 5.0. After 10 freeze-thaw cycles, the lipid suspension was extruded through two 0.1 μm pore diameter Nucleopore filters. Non-entrapped dye was removed by passage over a Sephadex G10 column (Amersham Biosciences). Lipid concentration was measured using the ammonium ferrothiocyanate method (Stewart, Anal. Biochem. 104:10-14, 1980).
For pore assays, recombinant truncated Bcl-2 family protein or mutant protein (Bcl-xL(ΔC)) (500 nM) was added to large unilamellar vesicles (60 μM lipid concentration) in 100 mM KCl, 10 mM KOAc, pH 5.0, and fluorescence measured (490 nm excitation, 520 nm emission) with a Fluoromax-3 spectrophotometer. Peptides of the BH3 domain were incubated with the Bcl-xL(ΔC) 5 min prior to mixing with liposomes. AA1 was added to liposomes 1 min before adding the Bcl-xL(ΔC) protein. Samples for kinetic assays were analyzed in a thermostatted cuvette at 37° C. with constant stirring. Dose responses were measured in black quartz microplates (Hellma) at room temperature. Calcein release was expressed as percentage of maximum release with detergent lysis (0.1% Triton X-100).

[4] = Cell viability by trypan blue dye exclusion; details: mouse
Text: as §1
as §2, with “(untreated). […]” for “(untreated).”

in vitro = details: mouse
Text: as §1, §2, §3

[5] = system: myeloma cell lines (RPMI-8226, U266, NCI-H929); assay type: cell-based, human
Method: Cell survival was assayed by exclusion of propidium iodide (PI) (10 mg/ml) by unfixed cells. Annexin V-FITC (Pharmingen) or 3,3′-dihexyloxacarbocyanine iodide (DiOC6(3)) (Molecular Probes) staining was analyzed together with PI to discriminate early apoptotic cells. Apoptotic cells were also measured as sub-G1 events among ethanol-fixed cells stained with […] PI. All cell samples were analyzed using a benchtop FACSCalibur® (Becton Dickinson, San Jose, Calif.) flow cytometer. Flow data were analyzed using MultiCycle AV software (Phoenix Flow Systems). For intracellular pH measurements, cell pellets were washed once and resuspended in 2 ml of HEPES-buffered medium (no phenol red and no serum). Carboxy-SNARF®-1 acetoxymethyl (AM) ester (Molecular Probes, 1 mM stock in DMSO, stored at −20° C.), a long wavelength fluorescent pH indicator, was added to a final concentration of 10 μM, and the cells were incubated for 30 min at 37° C. Following incubation with SNARF®-1 AM, cells were sedimented and the pellets were held on ice. Immediately before analysis, pellets were resuspended in Earle's balanced salt solution (experimental buffer) or high-[K^+] buffer containing nigericin (calibration samples).

T1 sequence (P10415 1-217 limits assumed, stated change not applied): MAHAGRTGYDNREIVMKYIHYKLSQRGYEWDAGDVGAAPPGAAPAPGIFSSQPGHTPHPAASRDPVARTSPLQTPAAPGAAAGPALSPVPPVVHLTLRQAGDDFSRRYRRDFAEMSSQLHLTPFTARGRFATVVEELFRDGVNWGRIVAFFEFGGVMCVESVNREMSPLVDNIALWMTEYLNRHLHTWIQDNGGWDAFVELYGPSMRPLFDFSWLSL
T2 sequence (Q07817 1-211 limits assumed, stated change not applied): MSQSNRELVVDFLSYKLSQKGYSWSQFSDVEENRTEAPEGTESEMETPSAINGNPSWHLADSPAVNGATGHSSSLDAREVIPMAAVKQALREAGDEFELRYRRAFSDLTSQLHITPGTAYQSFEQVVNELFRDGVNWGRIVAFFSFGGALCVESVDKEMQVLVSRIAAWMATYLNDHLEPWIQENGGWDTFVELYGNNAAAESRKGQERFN

Structure (SMILES): CCCC[C@H]1C(=O)OC(C)C(NC(=O)c2cccc(NC=O)c2OC)C(=O)O[C@@H](C)C1OC(=O)CC(C)C (some centres unmarked) [2-methoxy antimycin A3, antimycin A3 methyl ether]
- displacement of antimycin A3 from Bcl-2 (antimycin A3 fluorescence) [1]: decreased exponentially
- mitochondrial depolarization (JC-1) [2]: strongly depolarized
- cytotoxicity for cells that over-express Bcl-xL versus control cells ([3]; TABX2S vs TAMH.neo and TABX1A): selective cytotoxicity
- effect on cellular O2 consumption (Cellular O2 consumption): negligible effect

Structure (SMILES): CC(C)C(C(=O)O)N1C(=O)/C(=C\c2ccc(Br)cc2)SC1=S (centres unmarked) [BH3I-1]
- effect on Bcl-xL pore-forming activity (FIG. 3A) (Bcl-xL(ΔC) WT): no effect

Structure (SMILES): COc1cccc2c1C(=O)c1c(O)c3c(c(O)c1C2=O)C[C@@](O)(C(=O)CO)C[C@@H]3O[C@H]1C[C@H](N)[C@H](O)[C@H](C)O1 [doxorubicin]
- viability at 48 h, 5 µM [4]: 50%
- viability at 48 h, 5 µM ([4]; TABX1A cells (TAMH hepatocyte line with Bcl-xL antisense)): 20%
- viability at 5 µM (in vitro): 88%

Structure (SMILES): CC[C@H]1/C=C/C=C/C[C@@H](C)[C@H](O)[C@@](C)(O)C(=O)[C@@H](C)[C@H](O)[C@@H](C)C(=O)[C@@H](C)[C@H](O)[C@@H](C)/C=C/C(=O)O[C@@H]2[C@H](C)[C@H](CC1)O[C@]1(CC[C@H](C)[C@H](C[C@@H](C)O)O1)[C@H]2C [oligomycin]
- cell killing ([5]; 2-10 mg/ml): Only H929 cells were killed
- difference in sensitivity of TABX2S and TABX1A cell lines [3]: no significant differences

Structure (SMILES): CCCCC1C(=O)OC(C)C(NC(=O)c2cccc(NC=O)c2OCC(=O)c2ccccc2)C(=O)OC(C)C1OC(=O)CC(C)C (centres unmarked) [phenacyl ether antimycin A3]
- displacement of antimycin A3 from Bcl-2 (antimycin A3 fluorescence) [1]: did not displace

Structure (SMILES): C=C(C)[C@H]1Cc2c(ccc3c2O[C@@H]2COc4cc(OC)c(OC)cc4[C@@H]2C3=O)O1 [rotenone]
- cell killing ([5]; 0.5-2.5 mg/ml): none of the myeloma cell lines were killed
- difference in sensitivity of TABX2S and TABX1A cell lines [3]: no significant differences

Structure (SMILES): CC(C)[C@@H]1NC(=O)[C@H](C)OC(=O)[C@@H](C(C)C)NC(=O)[C@@H](C(C)C)OC(=O)[C@H](C(C)C)NC(=O)[C@H](C)OC(=O)[C@@H](C(C)C)NC(=O)[C@@H](C(C)C)OC(=O)[C@H](C(C)C)NC(=O)[C@H](C)OC(=O)[C@@H](C(C)C)NC(=O)[C@@H](C(C)C)OC1=O [valinomycin]
- difference in sensitivity of TABX2S and TABX1A cell lines [3]: no significant differences
